According to US20260159523A1, “PESTICIDALLY ACTIVE HETEROCYCLIC DERIVATIVES WITH SULFUR CONTAINING SUBSTITUENTS” (SYNGENTA CROP PROTECTION AG, priority 2022, published 2026):

What was measured:
Format in all cases: in vivo
Euschistus heros = assay: Activity against Euschistus heros (neotropical brown stink bug), soybean leaves; conditions: 120 h, application rate 200 ppm, N2 nymphs, 5 days after infestation, read-out: effect in at least one of the two categories (mortality or growth inhibition)
Procedure: Activity Against Euschistus heros (Neotropical Brown Stink Bug)
Soybean leaves on agar in 24-well microtiter plates were sprayed with aqueous test solutions prepared from 10'000 ppm DMSO stock solutions. After drying the leaves were infested with N2 nymphs. The samples were assessed for mortality and growth inhibition in comparison to untreated samples 5 days after infestation.

Spodoptera littoralis = assay: Activity against Spodoptera littoralis (Egyptian cotton leaf worm), cotton leaf discs; conditions: foliar, 72 h, application rate 200 ppm, L1 larvae, 3 days after infestation
Procedure: Activity Against Spodoptera littoralis (Egyptian Cotton Leaf Worm)
Cotton leaf discs were placed onto agar in 24-well microtiter plates and sprayed with aqueous test solutions prepared from 10'000 ppm DMSO stock solutions. After drying the leaf discs were infested with five L1 larvae. The samples were assessed for mortality, anti-feeding effect, and growth inhibition in comparison to untreated samples 3 days after infestation. Control of Spodoptera littoralis by a test sample is given when at least one of the categories mortality, anti-feedant effect, and growth inhibition is higher than the untreated sample.

Myzus persicae [1] = assay: Activity against Myzus persicae (green peach aphid), feeding/contact activity; conditions: foliar, 144 h, application rate 200 ppm, sunflower leaf discs, mixed ages, 6 days after infestation
Procedure: Activity Against Myzus persicae (Green Peach Aphid) Feeding/Contact Activity
Sunflower leaf discs were placed onto agar in a 24-well microtiter plate and sprayed with aqueous test solutions prepared from 10'000 ppm DMSO stock solutions. After drying, the leaf discs were infested with an aphid population of mixed ages. The samples were assessed for mortality 6 days after infestation.

Chilo suppressalis = assay: Activity against Chilo suppressalis (striped rice stemborer), artificial diet; conditions: 144 h, application rate 200 ppm, L2 larvae, 6 days after infestation
Procedure: Activity Against Chilo suppressalis (Striped Rice Stemborer)
24-well microtiter plates with artificial diet were treated with aqueous test solutions prepared from 10'000 ppm DMSO stock solutions by pipetting. After drying, the plates were infested with L2 larvae (6-8 per well). The samples were assessed for mortality, anti-feeding effect, and growth inhibition in comparison to untreated samples 6 days after infestation. Control of Chilo suppressalis by a test sample is given when at least one of the categories mortality, anti-feedant effect, and growth inhibition is higher than the untreated sample.

Diabrotica balteata = assay: Activity against Diabrotica balteata (corn root worm), maize sprouts; conditions: 96 h, application rate 200 ppm, L2 larvae, 4 days after infestation, read-out: effect in at least one of the two categories (mortality or growth inhibition)
Procedure: Activity Against Diabrotica balteata (Corn Root Worm)
Maize sprouts placed onto an agar layer in 24-well microtiter plates were treated with aqueous test solutions prepared from 10'000 ppm DMSO stock solutions by spraying. After drying, the plates were infested with L2 larvae (6 to 10 per well). The samples were assessed for mortality and growth inhibition in comparison to untreated samples 4 days after infestation.

Plutella xylostella = assay: Activity against Plutella xylostella (diamond back moth), artificial diet; conditions: 192 h, application rate 200 ppm, eggs, 8 days after infestation, read-out: effect in at least one of the two categories (mortality or growth inhibition)
Procedure: Activity Against Plutella xylostella (Diamond Back Moth)
24-well microtiter plates with artificial diet were treated with aqueous test solutions prepared from 10'000 ppm DMSO stock solutions by pipetting. After drying, Plutella eggs were pipetted through a plastic stencil onto a gel blotting paper and the plate was closed with it. The samples were assessed for mortality and growth inhibition in comparison to untreated samples 8 days after infestation.

Myzus persicae [2] = assay: Activity against Myzus persicae (green peach aphid), systemic activity; conditions: 144 h, test rate 24 ppm, pea seedling roots in test solution, 6 days
Procedure: Activity Against Myzus persicae (Green Peach Aphid) Systemic Activity
Roots of pea seedlings infested with an aphid population of mixed ages were placed directly into aqueous test solutions prepared from 10'000 DMSO stock solutions. The samples were assessed for mortality 6 days after placing seedlings into test solutions.

CCS(=O)(=O)c1cc(C2(C#N)CC2)cnc1-c1coc2ccc(C(F)(F)F)cc2c1=O [P.1, 1-[5-ethylsulfonyl-6-[4-oxo-6-(trifluoromethyl)chromen-3-yl]-3-pyridyl]cyclopropanecarbonitrile]
≥ 80%: percent effect (mortality or growth inhibition) at 200 ppm (Euschistus heros) | percent control (mortality, anti-feedant effect or growth inhibition) at 200 ppm (Spodoptera littoralis) | mortality at 200 ppm (Myzus persicae [1]) | percent control (mortality, anti-feedant effect or growth inhibition) at 200 ppm (Chilo suppressalis) | percent effect (mortality or growth inhibition) at 200 ppm (Diabrotica balteata) | percent effect (mortality or growth inhibition) at 200 ppm (Plutella xylostella) | mortality at 24 ppm (Myzus persicae [2])

CCS(=O)(=O)c1cc(C2(C#N)CC2)cnc1-c1coc2ccc(F)cc2c1=O [P.2, 1-[5-ethylsulfonyl-6-(6-fluoro-4-oxo-chromen-3-yl)-3-pyridyl]cyclo-propanecarbonitrile]
≥ 80%: percent effect (mortality or growth inhibition) at 200 ppm (Euschistus heros) | percent control (mortality, anti-feedant effect or growth inhibition) at 200 ppm (Spodoptera littoralis) | percent control (mortality, anti-feedant effect or growth inhibition) at 200 ppm (Chilo suppressalis) | percent effect (mortality or growth inhibition) at 200 ppm (Diabrotica balteata) | percent effect (mortality or growth inhibition) at 200 ppm (Plutella xylostella) | mortality at 24 ppm (Myzus persicae [2])

CCS(=O)(=O)c1cc(C2(C#N)CC2)cnc1-c1coc2ccc(Cl)cc2c1=O [P.3, 1-[6-(6-chloro-4-oxo-chromen-3-yl)-5-ethylsulfonyl-3-pyridyl]-cyclopropanecarbonitrile]
≥ 80%: percent effect (mortality or growth inhibition) at 200 ppm (Euschistus heros) | percent control (mortality, anti-feedant effect or growth inhibition) at 200 ppm (Spodoptera littoralis) | mortality at 200 ppm (Myzus persicae [1]) | percent control (mortality, anti-feedant effect or growth inhibition) at 200 ppm (Chilo suppressalis) | percent effect (mortality or growth inhibition) at 200 ppm (Diabrotica balteata) | percent effect (mortality or growth inhibition) at 200 ppm (Plutella xylostella)

CCS(=O)(=O)c1cc(C2(C#N)CC2)cnc1-c1coc2ccc(C#N)cc2c1=O [P.4, 3-[5-(1-cyanocyclopropyl)-3-ethylsulfonyl-2-pyridyl]-4-oxo-chromene-6-carbonitrile]
≥ 80%: percent effect (mortality or growth inhibition) at 200 ppm (Plutella xylostella) | mortality at 24 ppm (Myzus persicae [2])

CCS(=O)(=O)c1cc(C2(C#N)CC2)cnc1-c1coc2ccc(Br)cc2c1=O [P.5, 1-[6-(6-bromo-4-oxo-chromen-3-yl)-5-ethylsulfonyl-3-pyridyl]-cyclopropanecarbonitrile]
≥ 80%: percent effect (mortality or growth inhibition) at 200 ppm (Euschistus heros) | percent control (mortality, anti-feedant effect or growth inhibition) at 200 ppm (Spodoptera littoralis) | percent control (mortality, anti-feedant effect or growth inhibition) at 200 ppm (Chilo suppressalis) | percent effect (mortality or growth inhibition) at 200 ppm (Diabrotica balteata) | percent effect (mortality or growth inhibition) at 200 ppm (Plutella xylostella)

CCS(=O)(=O)c1cc(C2(C#N)CC2)cnc1-c1coc2ccc(I)cc2c1=O [P.6, 1-[5-ethylsulfonyl-6-(6-iodo-4-oxo-chromen-3-yl)-3-pyridyl]cyclo-propanecarbonitrile]
≥ 80%: percent effect (mortality or growth inhibition) at 200 ppm (Euschistus heros) | percent control (mortality, anti-feedant effect or growth inhibition) at 200 ppm (Spodoptera littoralis) | mortality at 200 ppm (Myzus persicae [1]) | percent control (mortality, anti-feedant effect or growth inhibition) at 200 ppm (Chilo suppressalis) | percent effect (mortality or growth inhibition) at 200 ppm (Diabrotica balteata) | percent effect (mortality or growth inhibition) at 200 ppm (Plutella xylostella)

CCS(=O)(=O)c1cc(C2(C#N)CC2)cnc1-c1coc2ccc(-c3cc(F)cc(F)c3)cc2c1=O [P.7, 1-[6-[6-(3,5-difluorophenyl)-4-oxo-chromen-3-yl]-5-ethylsulfonyl-3-pyridyl]-cyclopropanecarbonitrile]
≥ 80%: percent control (mortality, anti-feedant effect or growth inhibition) at 200 ppm (Spodoptera littoralis) | mortality at 200 ppm (Myzus persicae [1]) | percent effect (mortality or growth inhibition) at 200 ppm (Diabrotica balteata)

CCS(=O)(=O)c1cc(C2(C#N)CC2)cnc1-c1coc2ccc(-c3ccc(F)cc3)cc2c1=O [P.8, 1-[5-ethylsulfonyl-6-[6-(4-fluorophenyl)-4-oxo-chromen-3-yl]-3-pyridyl]-cyclopropanecarbonitrile]
≥ 80%: percent control (mortality, anti-feedant effect or growth inhibition) at 200 ppm (Chilo suppressalis) | percent effect (mortality or growth inhibition) at 200 ppm (Plutella xylostella)
